{
  "source": "paper PMC10367113",
  "about": "(Nature chemical biology, 2022)",
  "assay_type_in_all_cases": "biochemical",
  "key": {"[1]": {"biological_target": "Bl_Glc31 (Bifidobacterium longum, UniProt Q8G4P4)", "test": "LC-MS", "details": "product Man9GlcNAc"}, "[2]": {"biological_target": "T1, Bl_Endo85 (Bifidobacterium longum, UniProt Q8G4P3)", "T1 sequence (Q8G4P3 38-937)": "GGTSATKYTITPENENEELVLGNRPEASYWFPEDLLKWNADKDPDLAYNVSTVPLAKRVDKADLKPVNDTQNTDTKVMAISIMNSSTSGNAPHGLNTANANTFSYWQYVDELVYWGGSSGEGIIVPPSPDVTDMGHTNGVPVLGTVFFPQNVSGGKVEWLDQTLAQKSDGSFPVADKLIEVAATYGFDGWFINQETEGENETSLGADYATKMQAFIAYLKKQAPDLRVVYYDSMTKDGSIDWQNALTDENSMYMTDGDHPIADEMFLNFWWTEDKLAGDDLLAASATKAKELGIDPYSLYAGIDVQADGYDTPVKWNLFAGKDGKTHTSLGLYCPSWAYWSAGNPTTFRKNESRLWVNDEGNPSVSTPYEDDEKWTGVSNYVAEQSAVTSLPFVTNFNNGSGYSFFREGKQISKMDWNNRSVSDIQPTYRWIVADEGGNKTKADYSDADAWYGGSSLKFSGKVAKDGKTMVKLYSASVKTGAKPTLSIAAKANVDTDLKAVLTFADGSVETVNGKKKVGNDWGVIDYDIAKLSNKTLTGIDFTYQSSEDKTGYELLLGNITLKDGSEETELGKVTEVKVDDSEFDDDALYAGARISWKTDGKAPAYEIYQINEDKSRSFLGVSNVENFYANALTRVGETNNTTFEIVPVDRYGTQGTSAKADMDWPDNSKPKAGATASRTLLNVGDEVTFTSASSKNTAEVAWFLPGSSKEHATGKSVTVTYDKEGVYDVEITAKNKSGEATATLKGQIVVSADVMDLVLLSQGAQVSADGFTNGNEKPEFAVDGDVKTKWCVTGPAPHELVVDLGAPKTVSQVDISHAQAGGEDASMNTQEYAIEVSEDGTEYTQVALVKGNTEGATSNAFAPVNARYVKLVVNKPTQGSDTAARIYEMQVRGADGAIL", "test": "LC-MS", "details": "150 mM ammonium acetate pH 5.0, 37 °C, 16 h; product Man9GlcNAc"}, "[3]": {"biological_target": "T2, Bl_Man38C (Bifidobacterium longum, UniProt Q8G4P9)", "T2 sequence (Q8G4P9 1-1034)": "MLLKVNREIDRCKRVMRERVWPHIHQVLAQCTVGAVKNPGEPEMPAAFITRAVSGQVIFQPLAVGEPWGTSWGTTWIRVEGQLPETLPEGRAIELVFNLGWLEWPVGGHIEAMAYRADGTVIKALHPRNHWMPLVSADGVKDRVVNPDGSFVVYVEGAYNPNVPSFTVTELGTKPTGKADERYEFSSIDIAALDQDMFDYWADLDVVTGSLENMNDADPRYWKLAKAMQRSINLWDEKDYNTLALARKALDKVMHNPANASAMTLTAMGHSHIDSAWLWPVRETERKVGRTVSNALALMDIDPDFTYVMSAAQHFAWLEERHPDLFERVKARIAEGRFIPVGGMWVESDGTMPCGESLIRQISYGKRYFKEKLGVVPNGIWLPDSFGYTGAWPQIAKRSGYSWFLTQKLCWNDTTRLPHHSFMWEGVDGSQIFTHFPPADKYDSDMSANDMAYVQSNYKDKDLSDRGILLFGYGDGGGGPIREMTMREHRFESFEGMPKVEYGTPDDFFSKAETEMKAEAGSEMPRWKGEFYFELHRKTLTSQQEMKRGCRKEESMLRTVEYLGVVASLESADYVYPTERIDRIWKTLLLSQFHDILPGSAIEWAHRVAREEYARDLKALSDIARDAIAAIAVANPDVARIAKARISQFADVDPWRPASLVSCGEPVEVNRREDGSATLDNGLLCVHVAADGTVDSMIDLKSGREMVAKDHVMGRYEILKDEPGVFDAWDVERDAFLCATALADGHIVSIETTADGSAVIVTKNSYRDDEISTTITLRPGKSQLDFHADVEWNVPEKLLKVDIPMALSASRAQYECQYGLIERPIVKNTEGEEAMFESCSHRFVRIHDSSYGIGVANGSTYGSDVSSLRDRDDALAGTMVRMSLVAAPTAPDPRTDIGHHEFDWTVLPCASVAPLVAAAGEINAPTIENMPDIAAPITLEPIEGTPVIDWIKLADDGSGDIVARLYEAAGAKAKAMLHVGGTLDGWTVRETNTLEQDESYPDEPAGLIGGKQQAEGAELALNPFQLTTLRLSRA", "test": "LC-MS hydrolysis kinetics", "details": "pH 5.5, 37 °C, 0.1 mM CoCl2"}, "[4]": {"biological_target": "T3, Bl_Man125 (Bifidobacterium longum, UniProt Q8G4P0)", "T3 sequence (Q8G4P0 1-432)": "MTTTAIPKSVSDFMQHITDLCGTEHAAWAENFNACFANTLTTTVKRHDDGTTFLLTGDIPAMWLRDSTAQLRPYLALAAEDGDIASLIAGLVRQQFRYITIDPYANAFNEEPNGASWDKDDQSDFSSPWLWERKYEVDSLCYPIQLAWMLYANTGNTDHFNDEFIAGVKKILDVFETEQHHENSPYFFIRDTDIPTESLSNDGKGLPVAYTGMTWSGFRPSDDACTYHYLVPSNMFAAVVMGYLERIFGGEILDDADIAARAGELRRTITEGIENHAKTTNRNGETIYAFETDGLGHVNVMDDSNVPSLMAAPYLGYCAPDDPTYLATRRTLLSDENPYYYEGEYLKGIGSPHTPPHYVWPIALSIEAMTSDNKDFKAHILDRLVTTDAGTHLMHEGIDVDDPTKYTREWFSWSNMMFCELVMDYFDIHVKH", "test": "LC-MS hydrolysis kinetics", "details": "pH 5.5, 37 °C"}, "[5]": {"biological_target": "T4, Bl_Man38B (Bifidobacterium longum, UniProt Q8G4Q0)", "T4 sequence (Q8G4Q0 1-1046)": "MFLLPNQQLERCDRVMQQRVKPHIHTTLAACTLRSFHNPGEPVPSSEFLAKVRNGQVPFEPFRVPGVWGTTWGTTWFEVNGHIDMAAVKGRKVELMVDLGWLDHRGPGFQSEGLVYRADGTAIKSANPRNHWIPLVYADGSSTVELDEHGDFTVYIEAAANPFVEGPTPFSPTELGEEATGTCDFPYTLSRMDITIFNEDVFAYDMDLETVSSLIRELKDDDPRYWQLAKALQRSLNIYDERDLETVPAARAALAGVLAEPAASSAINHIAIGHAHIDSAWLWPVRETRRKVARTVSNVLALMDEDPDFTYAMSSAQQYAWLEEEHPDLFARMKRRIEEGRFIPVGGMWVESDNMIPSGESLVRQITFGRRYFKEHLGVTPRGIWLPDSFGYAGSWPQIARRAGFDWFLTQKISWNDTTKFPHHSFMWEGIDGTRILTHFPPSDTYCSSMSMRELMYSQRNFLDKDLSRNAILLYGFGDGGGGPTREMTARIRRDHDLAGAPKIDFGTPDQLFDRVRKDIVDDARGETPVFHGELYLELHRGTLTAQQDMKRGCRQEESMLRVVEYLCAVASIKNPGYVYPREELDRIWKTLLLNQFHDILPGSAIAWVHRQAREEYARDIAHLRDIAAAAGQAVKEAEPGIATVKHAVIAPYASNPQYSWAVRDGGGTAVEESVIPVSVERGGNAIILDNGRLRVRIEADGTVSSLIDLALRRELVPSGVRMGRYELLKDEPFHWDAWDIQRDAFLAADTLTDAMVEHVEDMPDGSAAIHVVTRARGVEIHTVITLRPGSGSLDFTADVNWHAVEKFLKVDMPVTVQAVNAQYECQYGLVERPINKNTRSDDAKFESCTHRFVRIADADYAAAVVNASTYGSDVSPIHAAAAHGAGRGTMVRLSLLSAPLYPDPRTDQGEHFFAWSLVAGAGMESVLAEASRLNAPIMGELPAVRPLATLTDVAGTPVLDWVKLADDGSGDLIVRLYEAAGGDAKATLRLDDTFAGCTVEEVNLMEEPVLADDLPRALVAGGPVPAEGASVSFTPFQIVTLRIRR", "test": "LC-MS hydrolysis kinetics", "details": "pH 5.5, 37 °C, 0.1 mM CoCl2"}},
  "data": [
    {"smiles": "CC(=O)N[C@H]1C(O)O[C@H](CO)[C@@H](O[C@@H]2O[C@H](CO[C@H]3O[C@H](CO[C@H]4O[C@H](CO)[C@@H](O)[C@H](O)[C@@H]4O[C@H]4O[C@H](CO)[C@@H](O)[C@H](O)[C@@H]4O)[C@@H](O)[C@H](O[C@H]4O[C@H](CO)[C@@H](O)[C@H](O)[C@@H]4O[C@H]4O[C@H](CO)[C@@H](O)[C@H](O)[C@@H]4O)[C@@H]3O)[C@@H](O)[C@H](O[C@H]3O[C@H](CO)[C@@H](O)[C@H](O)[C@@H]3O[C@H]3O[C@H](CO)[C@@H](O)[C@H](O)[C@@H]3O[C@H]3O[C@H](CO)[C@@H](O)[C@H](O[C@H]4O[C@H](CO)[C@@H](O)[C@H](O)[C@H]4O)[C@@H]3O)[C@@H]2O)[C@@H]1O", "note": "(some centres unmarked) [GlcMan9GlcNAc]", "values": [
      {"measurement": "LC-MS", "setting": "[1]", "result": "Bl_Glc31 can specifically cleave GlcMan9GlcNAc, generating only Man9GlcNAc"}
    ]},
    {"smiles": "CC(=O)N[C@@H]1[C@@H](O)[C@H](O[C@@H]2O[C@H](CO)[C@@H](O[C@@H]3O[C@H](CO[C@H]4O[C@H](CO[C@H]5O[C@H](CO)[C@@H](O)[C@H](O)[C@@H]5O[C@H]5O[C@H](CO)[C@@H](O)[C@H](O)[C@@H]5O)[C@@H](O)[C@H](O[C@H]5O[C@H](CO)[C@@H](O)[C@H](O)[C@@H]5O[C@H]5O[C@H](CO)[C@@H](O)[C@H](O)[C@@H]5O)[C@@H]4O)[C@@H](O)[C@H](O[C@H]4O[C@H](CO)[C@@H](O)[C@H](O)[C@@H]4O[C@H]4O[C@H](CO)[C@@H](O)[C@H](O)[C@@H]4O[C@H]4O[C@H](CO)[C@@H](O)[C@H](O)[C@@H]4O)[C@@H]3O)[C@H](O)[C@H]2NC(C)=O)[C@@H](CO)O[C@H]1NC(=O)C[C@H](N)C(=O)O", "note": "[Man9GlcNAc2-Asn]", "values": [
      {"measurement": "LC-MS", "setting": "[2]", "result": "Reactions of Bl_Endo85 against Man5GlcNAc2-Asn (e) and Man9GlcNAc2-Asn (g)"}
    ]},
    {"smiles": "OC[C@H]1O[C@H](O[C@@H]2C(O)O[C@H](CO)[C@@H](O)[C@@H]2O)[C@@H](O)[C@@H](O)[C@@H]1O", "note": "(stereo partly drawn) [α-1,2-mannobiose]", "values": [
      {"measurement": "Km", "setting": "[3]", "result": "Bl_Man38C presents a clear preference for α-1,2-mannobiose"}
    ]},
    {"smiles": "OC[C@H]1O[C@H](OC[C@H]2OC(O)[C@@H](O)[C@@H](O)[C@@H]2O)[C@@H](O)[C@@H](O)[C@@H]1O", "note": "(stereo partly drawn) [α-1,6-mannobiose]", "values": [
      {"measurement": "Km", "setting": "[4]", "result": "Bl_Man125 was shown to be strictly an α-1,6-mannosidase"},
      {"measurement": "Km", "setting": "[5]", "result": "Bl_Man38B was efficient over the three disaccharides"}
    ]}
  ]
}
